Reference: US8962860B2, “Inhibitors of glutaminyl cyclase” (Probiodrug AG, priority 2008, dated 2015)

Tests used:
[1] = Log BB screen: brain compound level and log BB in mice; format: in vivo; settings: single i.v. injection; for concentration at 1 h: iv, 10 mg/ml, mouse, brain, read-out: Brain concentration 1 h after application
Experimental: Screening for brain compound level and log BB was done in mice. Compound was applied by a single i.v. injection. […] At least 3 animals were analyzed per compound. Animals were sacrificed 1 h after compound application and blood was collected by heart puncture. Serum was prepared from blood. Animals were perfused with PBS and brains were collected. Compound level in serum and brain were determined by HPLC-MS/MS analysis. Log BB were calculated as follows: [formula]

[2] = tested on: pGlu-Aβ3-42 in transgenic (tg) mice, which overexpress human AβQ3-42; experiment: Treatment of Aβ-transgenic mice, pGlu-Aβ ELISA of brain homogenates; format: in vivo
Experimental: 6 (1-(1H-benzo[d]imidazol-5-yl)-5-(4-propoxyphenyl)imidazolidine-2,4-dion). Example compound 6 was implemented into the chow and the transgenic animals were treated orally. The treatment is specified in the table below. The mice used in this study were produced as described in WO 2009/034158.
Following treatment, tg mice were sacrificed, the brains were removed from the skull, flushed with ice cold saline and placed shortly on filter paper. Brain tissues without cerebellum were homogenized (Dounce homogenizer) in 2.5 ml 2% SDS in distilled water (SDS wash fraction), sonificated and centrifuged at 75,500×g for 1 hour at 4° C. The supernatant was removed and the pellet resuspended in 0.5 ml 70% formic acid (formic acid fraction) and neutralized by addition of 9.5 ml 1 M Tris solution. The formic acid (FA) is considered as the homogenate containing the highly insoluble Aβ peptides, including pGlu-Aβ species (Kawarabayashi et al., (2001), J. Neurosci. 21, 372-381). Aβx-40, Aβx-42 and Aβ3(pE)-42 specific sandwich ELISAs (all from IBL, Hamburg, Germany) were performed according to the manufacturer's manual. Samples were diluted to fit within the range of the standard curve using EIA buffer, which is supplied with the ELISA kits.

concentration at 1 h [1]	logBB mouse 1 h after i.v. injection [1]	Compound	pGlu-Aβ3-42 concentration in formic acid extracts ([2]; tg mice treated orally via chow (4.8 g/kg) for two months, vs placebo)	pGlu-Aβ3-42 concentration in formic acid extracts, brainstem ([2]; tg mice treated orally via chow for two months, brainstem)
20.2 ng/g	−1.6	O=C1NC(=O)N(c2ccc3[nH]cnc3c2)C1c1ccccc1Cl (stereo not shown) [Example 14, 1-(1H-benzo[d]imidazol-5-yl)-5-(2-chlorophenyl)imidazolidine-2,4-dione]	–	–
11.7 ng/g	−1.2	O=C1NC(=O)C2(Cc3ccccc3C2)N1c1ccc2[nH]cnc2c1 [Example 32, 3-(1H-benzimidazol-5-yl)-1,3′-dihydro-2H,5H-spiro[imidazolidine-4,2′-indene]-2,5-dione]	–	–

Further lines, the compound ahead of its results:

Compound	concentration at 1 h [1]	logBB mouse 1 h after i.v. injection [1]	pGlu-Aβ3-42 concentration in formic acid extracts ([2]; tg mice treated orally via chow (4.8 g/kg) for two months, vs placebo)	pGlu-Aβ3-42 concentration in formic acid extracts, brainstem ([2]; tg mice treated orally via chow for two months, brainstem)
O=C1NC(=O)N(c2ccc3[nH]cnc3c2)C1c1ccc2nsnc2c1 (stereo not shown) [Example 1, 5-(benzo[c][1,2,5]thiadiazol-6-yl)-1-(1H-benzo[d]imidazol-5-yl)imidazolidine-2,4-dione]	118 ng/g	−0.67	–	–
CCCOc1ccc(C2C(=O)NC(=O)N2c2ccc3[nH]cnc3c2)cc1 (racemic) [Example 6, 1-(1H-benzo[d]imidazol-5-yl)-5-(4-propoxyphenyl)imidazolidine-2,4-dione]	126 ng/g	−1.6	significant reduction	below the limit of detection
O=C1NC(=O)N(c2ccc3[nH]cnc3c2)C1c1ccc(Cl)cc1 (stereo not shown) [Example 13, 1-(1H-benzo[d]imidazol-5-yl)-5-(4-chlorophenyl)imidazolidine-2,4-dione]	31.4 ng/g	−1.4	–	–
O=C1NC(=O)N(c2ccc3[nH]cnc3c2)C1c1ccc(Cl)c(C(F)(F)F)c1 (stereo not shown) [Example 7, 1-(1H-benzo[d]imidazol-5-yl)-5-(4-chloro-3-(trifluoromethyl)phenyl)imidazolidine-2,4-dione]	38.2 ng/g	−2.5	–	–
Cc1ccc(O)c(C2C(=O)NC(=O)N2c2ccc3[nH]cnc3c2)c1 (stereo not shown) [Example 3, 1-(1H-benzo[d]imidazol-5-yl)-5-(2-hydroxy-5-methylphenyl)imidazolidine-2,4-dione]	17.1 ng/g	−1.42	–	–
